# According to paper PMC11367503, “Exploring galectin interactions with human milk oligosaccharides and blood group antigens identifies BGA6 as a functional galectin-4 ligand” (The Journal of Biological Chemistry, 2024):
# “And” between values parts separate entries of the source, which are not always exact repeats. Equal values may be shown once.
# Experiments:
# Type in all cases: binding
# [1] = molecular target: T1, human Gal-12 (Homo sapiens, UniProt Q96DT0); test: Competitive solid-phase assay (SPA), immobilized asialofetuin, Gal-12; details: mean ± S.D., three independent experiments
# T1 construct: To obtain full-length human Gal-12, we adapted our previously optimized procedure for murine Gal-12; made in house; host or cells: Escherichia coli Rosetta 2 (DE3)
# T1 sequence (Q96DT0 1-336): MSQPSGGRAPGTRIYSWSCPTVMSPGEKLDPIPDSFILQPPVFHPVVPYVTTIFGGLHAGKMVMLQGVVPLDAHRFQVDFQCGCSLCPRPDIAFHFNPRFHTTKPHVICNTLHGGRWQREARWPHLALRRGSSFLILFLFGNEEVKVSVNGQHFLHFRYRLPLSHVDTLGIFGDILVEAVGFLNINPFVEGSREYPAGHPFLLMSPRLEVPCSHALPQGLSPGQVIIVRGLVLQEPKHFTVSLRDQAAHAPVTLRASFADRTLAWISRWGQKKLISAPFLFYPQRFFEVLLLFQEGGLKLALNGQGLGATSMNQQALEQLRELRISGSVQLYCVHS
# Description: (§1) The assay was adapted from Rapoport et al. (2010) ([88]). Briefly, 96-well plates (flat-bottom) were coated with 10 μg/ml asialofetuin (ASF, Sigma-Aldrich) in sodium carbonate buffer (pH 9.6) and incubated overnight at 4 °C. Then, wells were washed three times with 100 μl/well PBS-Tween 0.05% (w/v) and blocked with 100 μl/well PBS-bovine serum albumin (BSA) 2% (1 h, room temperature (RT)) in a humid chamber. Meanwhile, equal volumes of human recombinant Gal-1, -3, -4, -7, and -12 (20–40 μg/ml) in PBS-BSA 0.3% buffer were preincubated with the corresponding inhibitors in serial dilutions (2 h, 37 °C). After washing, galectins were detected using the corresponding antigalectin primary detection antibodies in PBS-BSA 0.3% w/v (1 h at RT). For Gal-1, wells were incubated with an in-house purified 100 ng/ml biotinylated rabbit anti–human Gal-1 polyclonal immunoglobulin G. For Gal-3, -4, and -7, a 1:500 dilution of the corresponding biotinylated anti-human galectin antibodies was used (BAF1154, BAF1227, and MAB13391, respectively, R&D Systems). For Gal-12, a rabbit anti-human Gal-12 polyclonal antibody (Santa Cruz Biotechnology, 1:700) was used. For Gal-1, -3, -4, and -7, plates were rinsed three times before adding 0.33 μg/ml horseradish peroxidase (HRP)-labeled streptavidin (Sigma-Aldrich) for 30 min. For Gal-12, an anti-rabbit secondary antibody conjugate coupled to HRP was incubated for 1 h at RT in PBS-BSA 0.3% w/v. After washing, 100 μl TMB solution (0.1 mg/ml tetramethylbenzidine and 0.06% H2O2 in citrate-phosphate buffer, pH 5.0) was added to plates. The reaction was stopped by adding a 2N H2SO4 solution. Absorbance was determined at 450 nm in a Multiskan MS microplate reader (Thermo Fisher Scientific).
# [2] = molecular target: T2, human Gal-4 (Homo sapiens, UniProt P56470); test: Competitive solid-phase assay (SPA), immobilized asialofetuin, Gal-4; details: mean ± S.D., three independent experiments
# T2 construct: His6-SUMO (N, cleaved yes); made in house; host or cells: Escherichia coli BL21 (DE3)
# T2 sequence (P56470 1-323): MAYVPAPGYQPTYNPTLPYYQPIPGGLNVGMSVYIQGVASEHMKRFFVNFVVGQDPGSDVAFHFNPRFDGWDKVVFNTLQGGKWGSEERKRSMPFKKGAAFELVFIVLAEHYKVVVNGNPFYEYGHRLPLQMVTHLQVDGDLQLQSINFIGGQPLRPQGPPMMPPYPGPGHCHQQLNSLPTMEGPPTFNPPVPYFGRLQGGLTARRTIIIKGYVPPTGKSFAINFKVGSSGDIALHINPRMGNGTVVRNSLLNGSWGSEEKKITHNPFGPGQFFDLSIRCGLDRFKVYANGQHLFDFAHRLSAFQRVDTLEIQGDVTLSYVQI
# Description: as §1
# [3] = molecular target: T3, human Gal-7 (Homo sapiens, UniProt P47929); test: Competitive solid-phase assay (SPA), immobilized asialofetuin, Gal-7; details: for IC50: competitive SPA, immobilized asialofetuin, mean ± S.D., three independent experiments; for affinity of Gal-7 weaker than that shown by Gal-1: SPA, Gal-7 versus Gal-1
# T3 construct: made in house; host or cells: Escherichia coli BL21 (DE3)
# Description: as §1
# [4] = molecular target: T4, human Gal-1 (Homo sapiens, UniProt P09382); test: Competitive solid-phase assay (SPA), immobilized asialofetuin, Gal-1; details: mean ± S.D., three independent experiments
# T4 construct: made in house; host or cells: Escherichia coli BL21 (DE3)
# Description: as §1
# [5] = molecular target: T5, human Gal-3 (Homo sapiens, UniProt P17931); test: Competitive solid-phase assay (SPA), immobilized asialofetuin, Gal-3; details: mean ± S.D., three independent experiments
# T5 construct: made in house; host or cells: Escherichia coli BL21 (DE3)
# Description: as §1
# [6] = molecular target: T4, human Gal-1; test: Isothermal titration calorimetry (ITC), Gal-1; details: Gal-1, PBS, 298 K; for Kd: n fixed to 1.00
# Description: (§2) All ITC experiments were performed by using a NanoITC (TA Instruments) under previously optimized conditions ([89]). A typical titration involved 20 injections at 300 s intervals of 2.5 μl aliquots of a 2.5 to 10 mM ligand solution into the sample cell (volume 200 μl) containing the different galectins (30–100 μM). The solutions were prepared by dissolving the glycan ligands in degassed PBS buffer at 298 K. The titration cell was continuously stirred at 300 rev/min. The heats of dilution of the ligands in the buffer were subtracted from the titration data. […] Fitting was performed using the Nano Analyze software (TA Instruments; https://www.tainstruments.com/itcrun-dscrun-nanoanalyze-software/) to determine association constants (Ka) and the enthalpy change (ΔH). No reliable fit of the thermodynamic parameters could be obtained for binding affinities above 80 μM.
# [7] = molecular target: T5, human Gal-3; test: Isothermal titration calorimetry (ITC), Gal-3; details: Gal-3, PBS, 298 K; for Kd: n fixed to 1.00
# Description: as §2
# [8] = molecular target: T3, human Gal-7; test: Isothermal titration calorimetry (ITC), Gal-7; details: Gal-7, PBS, 298 K, n fixed to 1.00
# Description: as §2
# T5 sequence (P17931 whole entry): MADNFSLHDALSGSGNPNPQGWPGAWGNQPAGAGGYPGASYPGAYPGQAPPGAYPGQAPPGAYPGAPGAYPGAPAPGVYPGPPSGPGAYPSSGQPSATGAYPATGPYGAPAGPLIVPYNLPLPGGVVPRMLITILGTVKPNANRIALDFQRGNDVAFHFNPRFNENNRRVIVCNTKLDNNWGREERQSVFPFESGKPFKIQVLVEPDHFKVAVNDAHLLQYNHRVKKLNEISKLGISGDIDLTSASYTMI
# T3 sequence (P47929 whole entry): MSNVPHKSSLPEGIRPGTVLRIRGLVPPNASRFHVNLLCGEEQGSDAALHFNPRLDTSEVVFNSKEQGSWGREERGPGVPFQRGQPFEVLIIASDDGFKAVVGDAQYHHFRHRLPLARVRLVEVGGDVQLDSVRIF
# T4 sequence (P09382 whole entry): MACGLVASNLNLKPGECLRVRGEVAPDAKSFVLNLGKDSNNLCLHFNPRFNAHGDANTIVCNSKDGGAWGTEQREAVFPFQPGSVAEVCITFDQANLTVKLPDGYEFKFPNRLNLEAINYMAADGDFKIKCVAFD
IC50 [1] [mM],IC50 [2] [mM],IC50 [3] [mM],IC50 [4],IC50 [5],affinity of Gal-7 weaker than that shown by Gal-1 [3],-TΔS [6] [kJ/mol],ΔH [6] [kJ/mol],Kd [6] [mM],-TΔS [7] [kJ/mol],ΔH [7] [kJ/mol],Kd [7] [mM],Kd [8] [mM],Structure (SMILES)
9.2 ± 1,,4.3 ± 0.9,1.8 ± 0.1 mM,7.8 ± 0.8 mM,,,,,,,,,"CC(=O)NC1C(O)CC(OC2C(O)C(CO)OC(OC3C(O)C(CO)OC(OC4C(O)C(CO)OC(OC5C(CO)OC(O)C(O)C5O)C4O)C3NC(C)=O)C2O)(C(=O)O)OC1C(O)C(O)CO (stereo not drawn) [LSTa, sialyl-lacto-N-tetraose a]"
8.9 ± 1,25.1 ± 0.5,7.2 ± 0.3,2.6 mM and 2.61 mM,2.7 ± 0.5 mM,,,,,,,,,"CC(=O)NC1C(OC2C(O)C(CO)OC(OC3C(CO)OC(O)C(O)C3OC3OC(C)C(O)C(O)C3O)C2O)OC(CO)C(O)C1OC1OC(CO)C(O)C(O)C1O (stereo not drawn) [LNFP V, lacto-N-fucopentaose V]"
53.3 ± 2,,9.5 ± 0.3,,,,,,,,,,,"CC(=O)NC1C(O)CC(OCC2OC(OC3C(CO)OC(O)C(O)C3O)C(O)C(O)C2O)(C(=O)O)OC1C(O)C(O)CO (stereo not drawn) [6’-SL, 6′-sialyllactose]"

# Further lines, the compound ahead of its results:
Structure (SMILES),IC50 [1] [mM],IC50 [2] [mM],IC50 [3] [mM],IC50 [4],IC50 [5],affinity of Gal-7 weaker than that shown by Gal-1 [3],-TΔS [6] [kJ/mol],ΔH [6] [kJ/mol],Kd [6] [mM],-TΔS [7] [kJ/mol],ΔH [7] [kJ/mol],Kd [7] [mM],Kd [8] [mM]
"CC(=O)NC1C(OC2C(O)C(CO)OC(OC3C(CO)OC(O)C(O)C3OC3OC(C)C(O)C(O)C3O)C2O)OC(CO)C(OC2OC(CO)C(O)C(O)C2O)C1OC1OC(C)C(O)C(O)C1O (stereo not drawn) [DFH, 3,3-difucosylhexaose (Lewis X hexaose)]",5.6 ± 0.8,13.8 ± 3,9.2 ± 0.2,9.7 mM and 9.73 mM,10.5 ± 0.7 mM,,,,,,,,
"CC(=O)NC1C(OC2C(O)C(CO)OC(OC3C(CO)OC(O)C(O)C3OC3OC(C)C(O)C(O)C3O)C2O)OC(CO)C(OC2OC(C)C(O)C(O)C2O)C1OC1OC(CO)C(O)C(O)C1O (stereo not drawn) [LAH, Lewis A antigen hexaose]",51.1 ± 5,30.4 ± 2,22.2 ± 0.8,,9.3 ± 0.6 mM,,,,,,,,
"CC(=O)NC1C(OC2C(O)C(CO)OC(OC3C(CO)OC(OC4C(O)C(CO)OC(OC5C(CO)OC(OC6C(O)C(CO)OC(OC7C(CO)OC(O)C(O)C7O)C6O)C(NC(C)=O)C5O)C4O)C(NC(C)=O)C3O)C2O)OC(CO)C(OC2OC(CO)C(O)C(O)C2O)C1O (stereo not drawn) [LNnO, lacto-N-neooctaose]",28.1 ± 5,21.5,2.1 ± 0.8,0.6 ± 0.1 mM,0.5 ± 0.9 mM,ca. 5 fold,-10.9 ± 0.0,-12.7 ± 2,0.073 ± 0.007,-21 ± 2,-4.6 ± 0.4,0.04 ± 0.003,
"CC(=O)NC1C(OC2C(O)C(CO)OC(OC3C(CO)OC(O)C(O)C3O)C2O)OC(CO)C(OC2OC(CO)C(O)C(O)C2O)C1O (stereo not drawn) [LNnT, lacto-N-neotetraose]",29.3 ± 6,25.2,3.3,0.5 ± 0.1 mM,~1.8 mM and 1.8 mM,ca. 5 fold,-14.7 ± 0.8,-9.0 ± 0.9,0.072 ± 0.008,,,0.095 ± 0.009,
"CC(=O)NC1C(OC2C(O)C(CO)OC(OC3C(CO)OC(O)C(O)C3O)C2O)OC(CO)C(O)C1OC1OC(CO)C(O)C(O)C1O (stereo not drawn) [LNT, lacto-N-tetraose]",30.1 ± 5,15.1 ± 0.2,2,1.6 ± 0.1 mM,~1.8 mM and 1.8 mM,,,,,,,,0.106 ± 0.008
